Experiments:
[1] = biological target: CDK6/Cyclin D1 (Homo sapiens (Human), UniProt Q00534); experiment: biochemical; conditions: CDK6_Ki (nM), non-phosphorylated CDK6/Cyclin D1, 2 mM ATP, Morrison fit
[2] = biological target: CDK2/Cyclin E1 (Homo sapiens (Human), UniProt P24941); experiment: biochemical; conditions: CDK2_Ki (nM), phosphorylated CDK2/Cyclin E1, 150 μM ATP, Morrison tight-binding fit
Method: The assay was initiated with the addition of ATP, following a fifteen minutes pre-incubation of enzyme and inhibitor at room temperature in the reaction mixture. The reaction was stopped after 45 minutes at room temperature by the addition of 50 μL of 80 mM EDTA, pH 7.5.

[3] = biological target: CDK4/Cyclin D3 (Homo sapiens (Human), UniProt P11802); experiment: biochemical
CDK4/Cyclin D3, sequence (P11802 whole entry): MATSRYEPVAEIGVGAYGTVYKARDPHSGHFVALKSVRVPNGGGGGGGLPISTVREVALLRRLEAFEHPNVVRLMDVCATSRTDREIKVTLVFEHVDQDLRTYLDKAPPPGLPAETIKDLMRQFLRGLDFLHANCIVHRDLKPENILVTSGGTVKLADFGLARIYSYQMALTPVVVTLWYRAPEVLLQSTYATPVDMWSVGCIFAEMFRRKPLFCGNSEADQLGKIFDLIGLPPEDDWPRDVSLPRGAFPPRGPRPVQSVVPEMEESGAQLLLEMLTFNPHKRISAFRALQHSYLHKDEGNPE
CDK4/Cyclin D3, sequence (P30281 whole entry partner): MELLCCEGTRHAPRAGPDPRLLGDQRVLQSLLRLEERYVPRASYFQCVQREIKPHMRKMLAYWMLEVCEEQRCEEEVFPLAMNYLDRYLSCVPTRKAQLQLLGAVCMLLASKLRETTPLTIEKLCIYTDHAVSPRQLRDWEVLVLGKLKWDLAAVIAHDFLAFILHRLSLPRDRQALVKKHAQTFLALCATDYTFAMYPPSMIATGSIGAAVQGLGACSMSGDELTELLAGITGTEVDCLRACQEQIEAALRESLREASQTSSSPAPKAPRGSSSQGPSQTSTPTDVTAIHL

[4] = system: Ovcar3 tumor xenograft; experiment: Ovcar3 mouse tumor xenograft model; assay type: in vivo, NSG mice; conditions: 10 mpk PO QD, 50 mpk PO QD and 50 mpk PO BID, 14 days
Method: Ovcar3 tumor cell line, purchased from ATCC (ATCC HTB-161™) was cultured in RPMI1640 (1×) media (Gibco™ cat#11875-093) with 10% FBS (Gibco™ cat #26140-079). To establish a Ovcar3 xenograft model, 5×10^6 cells per mouse was implanted subcutaneously into right hind flank NSG mice (#5557-NOD.cg-Prkdc Jackson Lab). Cells were suspended in 50% matrigel (Cultrex Basement Membrane Extract (BME), Trevigen's Basement Membrane Matrix) and 50% RPMI1640 (1×) media (Gibco™ cat#11875-093) serum free media prior to implantation.
Animals were randomized 39 days after cells implantation with each group consisted of 4 mice. Treatment began when tumors reached 100 mm^3-190 mm^3 in size. Test compounds were prepared in 40% Captisol and dosed PO at 10 and 50 mg/kg QD or at 50 mg/kg BID as a suspension for 14 days. Animals were taken down at designated time. Mice receiving no drugs were given vehicle QD or BID for 14 days. Tumor volumes were measured once prior to randomization with an electric caliper, with tumor volumes were calculated using Length×Width×Width/2 formulation. Tumor volumes were measured twice a week with an electric caliper, with tumor volumes calculated using Length×Width×Width/2 formula. Animal weights were recorded twice weekly.

[5] = system: HCC1806 tumor xenograft; experiment: HCC1806 mouse tumor xenograft model; assay type: in vivo, NU/NU female mice; conditions: 30 mpk PO BID, 50 mpk PO BID and 75 mpk PO BID, 14 days
Method: Source: HCC1806 (# CRL 2335, ATCC, Manassas, Va.)
The HCC1806 tumor cell line was cultured in RPMI1640 media supplemented with 10% Fetal Bovine Serum (FBS). To establish a HCC1806 xenograft model, 5×10^6 cells per mouse were implanted subcutaneously into right hind flank NU/NU female mice. Cells were suspended in 50% Cultrex Basement Membrane Extract and 50% RPMI 1640 media serum free media prior to implantation.
Animals were randomized 7 days after cells implantation with each group consisting of 13 mice. Treatment began when tumors reached 100 mm^3 to 170 mm^3 in size on Day 7. Test compounds were prepared in 0.1% Tween, 0.5% Methyl cellulose in water and dosed PO at 30, 50, and 75 mg/kg as a suspension BID for 14 days. Mice receiving no drugs were given vehicle BID for 14 days. Tumor volumes were measured twice a week with an electric caliper, with tumor volumes calculated using Length×Width×Width/2 formula. Animal weights were recorded twice weekly.

CDK6/Cyclin D1, sequence (Q00534 whole entry): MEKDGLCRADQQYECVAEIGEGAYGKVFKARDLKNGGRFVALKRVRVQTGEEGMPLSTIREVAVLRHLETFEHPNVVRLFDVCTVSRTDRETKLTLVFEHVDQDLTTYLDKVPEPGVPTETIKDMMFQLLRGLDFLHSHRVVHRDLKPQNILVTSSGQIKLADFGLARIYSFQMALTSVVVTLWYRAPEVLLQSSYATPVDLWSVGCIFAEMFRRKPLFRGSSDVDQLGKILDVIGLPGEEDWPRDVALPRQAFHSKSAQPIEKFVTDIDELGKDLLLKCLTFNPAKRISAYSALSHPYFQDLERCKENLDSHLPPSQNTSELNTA
CDK6/Cyclin D1, sequence (P24385 whole entry partner): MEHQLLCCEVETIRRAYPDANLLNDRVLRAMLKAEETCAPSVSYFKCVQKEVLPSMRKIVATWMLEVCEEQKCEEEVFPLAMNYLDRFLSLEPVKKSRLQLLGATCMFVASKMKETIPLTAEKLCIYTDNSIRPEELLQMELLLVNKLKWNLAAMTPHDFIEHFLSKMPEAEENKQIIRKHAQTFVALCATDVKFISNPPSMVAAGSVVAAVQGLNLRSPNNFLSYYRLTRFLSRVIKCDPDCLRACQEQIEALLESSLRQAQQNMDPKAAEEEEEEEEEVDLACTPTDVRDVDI

Row | Compound | Ki [1] [nM] | Ki [2] [nM] | Ki [3] [nM] | inhibition of tumor growth (mm^3) [4] | inhibition of tumor growth (mm^3) [5]
1 | C[C@@]1(O)CCC[C@H]1n1c(=O)c(F)cc2cnc(NC3CCN(S(C)(=O)=O)CC3)nc21 (single isomer, unassigned) [Example 6, (−)-6-fluoro-8-[(1R*,2R*)-2-hydroxy-2-methylcyclopentyl]-2-{[1-(methylsulfonyl)piperidin-4-yl]amino}pyrido[2,3-d]pyrimidin-7(8H)-one] | 2.38 | 0.48 | 3.94 | – | –
2 | C[C@@]1(O)CCC[C@H]1n1c(=O)ccc2cnc(NC3CCN(S(C)(=O)=O)CC3)nc21 [Example 2, 8-[(1R,2R)-2-hydroxy-2-methylcyclopentyl]-2-{[1-(methylsulfonyl)piperidin-4-yl]amino}pyrido[2,3-d]pyrimidin-7(8H)-one] | – | – | – | dose dependent inhibition of tumor growth | dose dependent inhibition of tumor growth
3 | C[C@@]1(O)CCC[C@H]1n1c(=O)c(C(F)F)cc2cnc(NC3CCN(S(C)(=O)=O)CC3)nc21 [Example 10, 6-(difluoromethyl)-8-[(1R,2R)-2-hydroxy-2-methylcyclopentyl]-2-{[1-(methylsulfonyl)piperidin-4-yl]amino}pyrido[2,3-d]pyrimidin-7(8H)-one] | – | – | – | – | tumor growth inhibition
4 | CS(=O)(=O)N1CCC(Nc2ncc3ccc(=O)n([C@@H]4CCC[C@@H](O)C4)c3n2)CC1 [Example 3, 8-[(1R,3R)-3-hydroxycyclohexyl]-2-{[1-(methylsulfonyl)piperidin-4-yl]amino}pyrido[2,3-d]pyrimidin-7(8H)-one] | 1.17 | 0.26 | 3.43 | – | –
5 | CC1CCC[C@@H]1n1c(=O)c(CC(N)=O)cc2cnc(NC3CCN(S(C)(=O)=O)CC3)nc21 (stereo in doubt) [Example 166, 2-(8-[(1S,2S)-2-methylcyclopentyl]-2-{[1-(methylsulfonyl)piperidin-4-yl]amino}-7-oxo-7,8-dihydropyrido[2,3-d]pyrimidin-6-yl)acetamide] | 6.71 | 2.23 | – | – | –
6 | CNS(=O)(=O)N1CCC(Nc2ncc3ccc(=O)n([C@@H]4CCC[C@@]4(C)O)c3n2)CC1 (single isomer, unassigned) [Example 56, (−)-4-({8-[(1R*,2R*)-2-hydroxy-2-methylcyclopentyl]-7-oxo-7,8-dihydropyrido[2,3-d]pyrimidin-2-yl}amino)-N-methylpiperidine-1-sulfonamide] | 1.77 | 0.28 | – | – | –
7 | CNS(=O)(=O)N1CCC(Nc2ncc3cc(C(F)F)c(=O)n([C@H]4CCC[C@]4(C)O)c3n2)CC1 (single isomer, unassigned) [Example 131, (+)-4-({6-(difluoromethyl)-8-[(1R*,2R*)-2-hydroxy-2-methylcyclopentyl]-7-oxo-7,8-dihydropyrido[2,3-d]pyrimidin-2-yl}amino)-N-methylpiperidine-1-sulfonamide] | 23.1 | 3.24 | – | – | –
8 | CNS(=O)(=O)N1CCC(Nc2ncc3cc(F)c(=O)n([C@@H]4CCC[C@@]4(C)O)c3n2)CC1 (single isomer, unassigned) [Example 124, (−)-4-({6-fluoro-8-[(1R*,2R*)-2-hydroxy-2-methylcyclopentyl]-7-oxo-7,8-dihydropyrido[2,3-d]pyrimidin-2-yl}amino)-N-methylpiperidine-1-sulfonamide] | 3.84 | 0.69 | – | – | –
9 | Cc1cc2cnc(NC3CCN(S(=O)(=O)NC4CCOCC4)CC3)nc2n([C@H]2CCC[C@]2(C)O)c1=O (single isomer, unassigned) [Example 97, (+)-4-({8-[(1R*,2R*)-2-hydroxy-2-methylcyclopentyl]-6-methyl-7-oxo-7,8-dihydropyrido[2,3-d]pyrimidin-2-yl}amino)-N-(tetrahydro-2H-pyran-4-yl)piperidine-1-sulfonamide] | 11.8 | 2.47 | – | – | –
10 | C[C@]1(O)CCC[C@@H]1n1c(=O)ccc2cnc(NC3CCN(S(=O)(=O)c4nccs4)CC3)nc21 (single isomer, unassigned) [Example 79, (+)-8-[(1R*,2R*)-2-hydroxy-2-methylcyclopentyl]-2-{[1-(1,3-thiazol-2-ylsulfonyl)piperidin-4-yl]amino}pyrido[2,3-d]pyrimidin-7(8H)-one] | 9.59 | 7.32 | – | – | –
11 | COC(C)(C)CNS(=O)(=O)N1CCC(Nc2ncc3ccc(=O)n([C@H]4CCC[C@]4(C)O)c3n2)CC1 (single isomer, unassigned) [Example 61, (+)-4-({8-[(1R*,2R*)-2-hydroxy-2-methylcyclopentyl]-7-oxo-7,8-dihydropyrido[2,3-d]pyrimidin-2-yl}amino)-N-(2-methoxy-2-methylpropyl)piperidine-1-sulfonamide] | 19.7 | 4.55 | – | – | –

More lines, main results first:

Row | Ki [1] [nM] | Ki [2] [nM] | Ki [3] [nM] | Compound | inhibition of tumor growth (mm^3) [4] | inhibition of tumor growth (mm^3) [5]
12 | 0.18 | 0.16 | 0.34 | C[C@@]1(O)CCC[C@H]1n1c(=O)c(CC#N)cc2cnc(NC3CCN(S(C)(=O)=O)CC3)nc21 (single isomer, unassigned) [Example 120, (−)-(8-[(1R*,2R*)-2-hydroxy-2-methylcyclopentyl]-2-{[1-(methylsulfonyl)piperidin-4-yl]amino}-7-oxo-7,8-dihydropyrido[2,3-d]pyrimidin-6-yl)acetonitrile] | – | –
13 | 0.23 | 0.11 | 0.92 | C[C@@]1(O)CCC[C@H]1n1c(=O)c(CCO)cc2cnc(NC3CCN(S(C)(=O)=O)CC3)nc21 (single isomer, unassigned) [Example 122, (−)-6-(2-hydroxyethyl)-8-[(1R*,2R*)-2-hydroxy-2-methylcyclopentyl]-2-{[1-(methylsulfonyl)piperidin-4-yl]amino}pyrido[2,3-d]pyrimidin-7(8H)-one] | – | –
14 | 1.24 | 0.21 | – | CCS(=O)(=O)N1CCC(Nc2ncc3ccc(=O)n([C@@H]4CCC[C@@]4(C)O)c3n2)CC1 (single isomer, unassigned) [Example 76, (−)-2-{[1-(ethylsulfonyl)piperidin-4-yl]amino}-8-[(1R*,2R*)-2-hydroxy-2-methylcyclopentyl]pyrido[2,3-d]pyrimidin-7(8H)-one] | – | –
15 | 0.88 | 0.19 | – | NS(=O)(=O)N1CCC(Nc2ncc3ccc(=O)n(C4CCCC4)c3n2)CC1 [Example 13, 4-[(8-cyclopentyl-7-oxo-7,8-dihydropyrido[2,3-d]pyrimidin-2-yl)amino]piperidine-1-sulfonamide] | – | –
16 | 0.13 | 1.74 | – | C[C@@H]1CCC[C@@H]1n1c(=O)c(CO)cc2cnc(NC3CCN(S(C)(=O)=O)CC3)nc21 [Example 51, 6-(hydroxymethyl)-8-[(1S,2R)-2-methylcyclopentyl]-2-{[1-(methylsulfonyl)piperidin-4-yl]amino}pyrido[2,3-d]pyrimidin-7(8H)-one] | – | –
17 | 0.15 | 0.17 | – | COCCS(=O)(=O)N1CCC(Nc2ncc3cc(C)c(=O)n([C@@H]4CCC[C@@]4(C)O)c3n2)CC1 (single isomer, unassigned) [Example 114, (−)-8-[(1R*,2R*)-2-hydroxy-2-methylcyclopentyl]-2-({1-[(2-methoxyethyl)sulfonyl]piperidin-4-yl}amino)-6-methylpyrido[2,3-d]pyrimidin-7(8H)-one] | – | –
18 | 0.29 | 0.08 | – | C[C@@]1(O)CCC[C@H]1n1c(=O)c(C(F)F)cc2cnc(NC3CCN(S(N)(=O)=O)CC3)nc21 (single isomer, unassigned) [Example 187, (−)-4-({6-(difluoromethyl)-8-[(1R*,2R*)-2-hydroxy-2-methylcyclopentyl]-7-oxo-7,8-dihydropyrido[2,3-d]pyrimidin-2-yl}amino)piperidine-1-sulfonamide] | – | –
19 | 1.14 | 0.48 | – | CCS(=O)(=O)N1CCC(Nc2ncc3ccc(=O)n(C4CCCC4)c3n2)CC1 [Example 16, 8-cyclopentyl-2-{[1-(ethylsulfonyl)piperidin-4-yl]amino}pyrido[2,3-d]pyrimidin-7(8H)-one] | – | –

— patent US10233188B2, “CDK2/4/6 inhibitors” (priority 2016, dated 2019)
